Measurements as given in ChEMBL document CHEMBL5096158, “HIV latency reversal agents: A potential path for functional cure?” (Eur J Med Chem, 2021).

Legend:
[1] = system: Human immunodeficiency virus 1; assay: Reversal of HIV-1 latency in human ACH-2 cells assessed as increase in GFP positive cells incubated for 24 hrs by flow cytometry; assay type: functional, organism-based, ACH-2 cell line; settings: Human immunodeficiency virus 1, ACH-2, 24 h
[2] = Cytotoxicity against human ACH-2 cells assessed as reduction in cell viability incubated for 48 hrs by WST-8 assay; assay type: toxicity, cell-based
[3] = Cytotoxicity against human U1 cells assessed as reduction in cell viability incubated for 48 hrs by WST-8 assay; assay type: toxicity, cell-based
[4] = Cytotoxicity against human PBMC cells assessed as reduction in cell viability incubated for 48 hrs by WST-8 assay; assay type: toxicity, cell-based
[5] = system: Human immunodeficiency virus 1; assay: Reversal of HIV-1 latency in human PBMC from HIV infected donors assessed as increase in p24Gag viral protein level incubated for 24 hrs by ELISA; assay type: functional
[6] = system: Human immunodeficiency virus 1; assay: Reactivation of HIV-1 latency in human U1 cells assessed as fold increase in HIV transcription by measuring GFP expression at 6 nM incubated for 24 hrs in presence of JQ1 by flow cytometry; assay type: functional
[7] = system: Human immunodeficiency virus 1; assay: Reactivation of HIV-1 latency in human U1 cells assessed as fold increase in HIV transcription by measuring GFP expression at 6 nM incubated for 24 hrs by flow cytometry; assay type: functional
[8] = system: Human immunodeficiency virus 1; assay: Reactivation of HIV-1 latency infected in GFP-fused human J-Lat C11 cells assessed as increase in GFP expression incubated for 48 hrs by flow cytometry; assay type: functional, organism-based; settings: Human immunodeficiency virus 1, J-Lat C11, 48 h
[9] = system: Human immunodeficiency virus 1; assay: Reactivation of HIV-1 latency infected in GFP-fused human J-Lat 10.6 cells assessed as increase in GFP expression incubated for 48 hrs by flow cytometry; assay type: functional, organism-based; settings: Human immunodeficiency virus 1, J-Lat 10.6, 48 h
[10] = Inhibition of HIV-1 latency infected in human U1 cells assessed as increase in p24 expression level incubated for 48 hrs by ELISA; assay type: functional, cell-based; settings: Human immunodeficiency virus 1, U1, 48 h
[11] = system: Human immunodeficiency virus 1; assay: Reversal of HIV-1 latency in human J-Lat 9.2 cells assessed as increase in GFP expression incubated for 24 hrs by flow cytometry; assay type: functional, organism-based; settings: Human immunodeficiency virus 1, J-Lat 9.2, 24 h
[12] = system: Human immunodeficiency virus 1; assay: Reversal of HIV-1 latency in human J-Lat 8.4 cells assessed as increase in GFP expression incubated for 24 hrs by flow cytometry; assay type: functional, organism-based; settings: Human immunodeficiency virus 1, J-Lat 8.4, 24 h
[13] = system: Human immunodeficiency virus 1; assay: Reversal of HIV-1 latency in human J-Lat 10.6 cells assessed as increase in GFP expression incubated for 24 hrs by flow cytometry; assay type: functional, organism-based; settings: Human immunodeficiency virus 1, J-Lat 10.6, 24 h
[14] = system: Human immunodeficiency virus 1; assay: Reactivation of HIV-1 latency infected in GFP-fused human J-Lat 9.2 cells assessed as increase in GFP expression at 1 uM incubated for 24 hrs by flow cytometry; assay type: functional
[15] = biological target: Protein kinase C gamma type (Homo sapiens, UniProt P05129); assay: Displacement of 3H-PDBu from recombinant human PKCgamma incubated for 25 mins by scintillation counter analysis
[16] = system: Human immunodeficiency virus 1; assay: Reactivation of HIV-1 latency in human J-Lat Tat-GFP Clone A1 cells assessed as increase in GFP expression at 375 pM incubated for 24 hrs by flow cytometry; assay type: functional
[17] = system: Human immunodeficiency virus 1; assay: Reactivation of HIV-1 latency in human J-Lat Tat-GFP Clone A1 cells assessed as increase in GFP expression at 23 pM incubated for 24 hrs by flow cytometry; assay type: functional
[18] = system: Human immunodeficiency virus 1; assay: Reactivation of HIV-1 latency in human CD4+ve Th cells assessed as increase in GFP expression at 3 nM incubated for 24 hrs by flow cytometry; assay type: functional

Compound CCCCCCCCCCc1ccc2c(c1)N(C)[C@@H](C(C)C)C(=O)NC(CO)C2 (some centres undefined) has an EC50 [1] of 25 nM, a CC50 at 48 h [2] of 21100 nM and a CC50 at 48 h [3] of 61200 nM. It also gave a CC50 at 48 h [4] of 39900 nM.

For CO[C@@H](CC[C@H](C)[C@H]1O[C@@]23C[C@H](OC(=O)C[C@H]([C@@H](C)O)OC(=O)C[C@](O)(O2)[C@H](C)CC3(C)C)[C@@H]1C)c1cc(O)ccc1Br [APLYSIATOXIN], the Activity [5] was 56%.

With C/C=C(\C)C(=O)O[C@H]1C(C)=C[C@]23C(=O)[C@H](C=C(CO)[C@@H](O)[C@]12O)C1C(C[C@H]3C)C1(C)C (some centres undefined) the “fold change (FC)” value [6] was 250 and the “fold change (FC)” value [7] was 25.

In the case of CC(=O)O[C@@]12C[C@@H](C)[C@@]3(O)[C@@H](C=C(CO)C[C@]4(O)C(=O)C(C)=C[C@@H]34)[C@@H]1C2(C)C [PROSTRATIN], the EC50 [8] is reported as 768 nM, the EC50 [9] is reported as 865 nM and the EC50 [10] is reported as > 1000 nM. The EC50 [11] was 45 nM, the EC50 [12] was 11 nM and the EC50 [13] was 3.3 nM.

In the case of CCCc1nc2c(N)nc3ccccc3c2s1, the Activity [14] is reported as 18%.

For CC1=C[C@H]2[C@@]3(O)[C@H](C)C[C@]4(OC(=O)Cc5cccc6ccccc56)[C@H]([C@@H]3C=C(CO)C[C@]2(O)C1=O)C4(C)C, the EC50 [10] was 10.2 nM and the Ki [15] was 0.65 nM.

For CCCCCC(=O)O[C@H]1C(C)=C[C@]23C(=O)[C@H](C=C(CO)[C@@H](O)[C@]12O)C1C(C[C@H]3C)C1(C)C (some centres undefined), the Activity [16] was 50%, the Activity [17] was 20% and the Activity [18] was 100%.
